Test results reported in ChEMBL document CHEMBL1201862, “PubChem BioAssay data set” (2004).
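Exposure lasted 48 hours, with cells grown in 96-well plates and compounds tested at five concentrations. At the GI50, growth is halved.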 Active and inactive are the calls of the source. No stated cut-off is given here; in the data, active = GI50 up to about 1.1 µM and inactive = higher.

Key:
Experiment in all cases: NCI-60 cell line screen, 48 h
DU-145 = tested on: DU-145
Hs-578T = tested on: Hs-578T
Malme-3M = tested on: Malme-3M
BT-549 = tested on: BT-549
SF-539 = tested on: SF-539
NCI/ADR-RES = tested on: NCI/ADR-RES
MDA-MB-231 = tested on: MDA-MB-231
OVCAR-5 = tested on: OVCAR-5
SF-295 = tested on: SF-295
SK-MEL-28 = tested on: SK-MEL-28
MCF7 = tested on: MCF7
RPMI-8226 = tested on: RPMI-8226
RXF 393 = tested on: RXF 393
HOP-92 = tested on: HOP-92
PC-3 = tested on: PC-3
HT-29 = tested on: HT-29
MDA-N = tested on: MDA-N
T47D = tested on: T47D

Measured: GI50

O=C(CCc1ccc(O)c(O)c1)OCCc1ccccc1
inactive: DU-145 > 100 µM | Hs-578T > 100 µM | Malme-3M > 88.9 µM | BT-549 > 100 µM | SF-539 18.6 µM | NCI/ADR-RES > 100 µM | MDA-MB-231 67.6 µM | OVCAR-5 > 100 µM | SF-295 > 100 µM | SK-MEL-28 > 100 µM | MCF7 > 62.1 µM | RPMI-8226 18.9 µM | RXF 393 > 67 µM | HOP-92 > 21.2 µM | PC-3 > 100 µM | HT-29 > 100 µM | MDA-N 15.4 µM | T47D > 96.4 µM

CC12CCC(O)CC1CCC1C2CCC2(C)C(C(=O)CC(O)C(F)(F)F)CCC12 (stereo unspecified)
inactive: DU-145 > 87.5 µM | Hs-578T 23.9 µM | Malme-3M 51.3 µM | BT-549 > 78.3 µM | SF-539 35.2 µM | NCI/ADR-RES 24.9 µM | MDA-MB-231 26.7 µM | OVCAR-5 26.4 µM | SF-295 8.73 µM | SK-MEL-28 73.5 µM | MCF7 31.2 µM | RPMI-8226 4.04 µM | RXF 393 7.87 µM | HOP-92 31.8 µM | PC-3 30.6 µM | HT-29 3.97 µM | MDA-N 61.1 µM | T47D 20.2 µM

CSC1=Nc2ccccc2N(C)c2c1c(-c1ccccc1)nn2C
inactive: DU-145 91.6 µM | Hs-578T 68.9 µM | BT-549 57.7 µM | SF-539 63.7 µM | NCI/ADR-RES 21.8 µM | MDA-MB-231 45.2 µM | OVCAR-5 > 100 µM | SF-295 4.94 µM | SK-MEL-28 > 100 µM | MCF7 23.8 µM | RPMI-8226 12.7 µM | RXF 393 15.6 µM | HOP-92 29.5 µM | PC-3 35.1 µM | HT-29 21.7 µM | MDA-N 27.7 µM | T47D 9.79 µM

CN(CCN(C)CCN(C)C(=O)Cc1ccc(Cl)c(Cl)c1)CCN1CCCC1
inactive: DU-145 57.3 µM | Hs-578T 28.5 µM | Malme-3M 20.5 µM | BT-549 25.7 µM | SF-539 21.8 µM | NCI/ADR-RES > 100 µM | MDA-MB-231 17.7 µM | OVCAR-5 37.5 µM | SF-295 19.6 µM | SK-MEL-28 1.94 µM | MCF7 24.2 µM | RPMI-8226 5.5 µM | RXF 393 16.2 µM | HOP-92 5.71 µM | PC-3 34.7 µM | HT-29 7.36 µM | MDA-N 6.85 µM | T47D 24.6 µM

COC1=C(C(c2cc(OC)c(OC)c(OC)c2)c2cc3c(cc2OC)OCO3)C(=O)OC1 (stereo unspecified)
inactive: DU-145 29.2 µM | Hs-578T 9.18 µM | Malme-3M 31.7 µM | BT-549 47.2 µM | SF-539 15.4 µM | NCI/ADR-RES 5.69 µM | MDA-MB-231 28.6 µM | OVCAR-5 34.4 µM | SF-295 15.1 µM | SK-MEL-28 12.7 µM | MCF7 29 µM | RPMI-8226 46 µM | RXF 393 11.7 µM | HOP-92 58.9 µM | PC-3 15.7 µM | HT-29 20.5 µM | MDA-N 3.94 µM | T47D > 100 µM

Oc1ccccc1C1C=C(c2ccccc2)NC(N2CCCCC2)=C1c1nc2ccccc2[nH]1 (stereo unspecified)
inactive: DU-145 24.2 µM | Hs-578T 13.4 µM | Malme-3M 15.8 µM | BT-549 15.1 µM | SF-539 15.9 µM | NCI/ADR-RES 15.8 µM | MDA-MB-231 11.9 µM | OVCAR-5 17.9 µM | SF-295 15.5 µM | SK-MEL-28 15.9 µM | MCF7 12.1 µM | RPMI-8226 9.57 µM | RXF 393 11.4 µM | HOP-92 13.7 µM | PC-3 11.8 µM | HT-29 15.2 µM | MDA-N 13.5 µM | T47D 18.9 µM

N#Cc1c(Nc2ccc(F)cc2)[n+]([O-])c2ccc(Cl)cc2[n+]1[O-]
inactive: DU-145 11.8 µM | Hs-578T 38.3 µM | Malme-3M 27.5 µM | BT-549 8.93 µM | SF-539 2.56 µM | NCI/ADR-RES 1.9 µM | MDA-MB-231 2.66 µM | SF-295 1.85 µM | SK-MEL-28 16.1 µM | MCF7 2.11 µM | RPMI-8226 2.72 µM | RXF 393 4.36 µM | HOP-92 2.14 µM | PC-3 4.81 µM | HT-29 3.47 µM | MDA-N 6.73 µM | T47D 2.89 µM

Fc1cccc(CSc2ncnc3c2ncn3C2CCCS2)c1 (stereo unspecified)
inactive: DU-145 17.4 µM | Hs-578T 26.9 µM | Malme-3M 21 µM | BT-549 21.7 µM | SF-539 11.7 µM | NCI/ADR-RES 25 µM | MDA-MB-231 23 µM | OVCAR-5 37.3 µM | SF-295 18.2 µM | SK-MEL-28 18.9 µM | MCF7 22 µM | RPMI-8226 7.08 µM | RXF 393 17.3 µM | HOP-92 24.2 µM | PC-3 14.5 µM | HT-29 15.5 µM | MDA-N 20.8 µM | T47D 29.3 µM

CC(C)(/N=N/C(C)(C)C(=O)NCCO)C(=O)NCCO
inactive: DU-145 > 100 µM | Hs-578T > 100 µM | Malme-3M > 100 µM | BT-549 > 100 µM | SF-539 > 100 µM | NCI/ADR-RES > 100 µM | MDA-MB-231 > 100 µM | OVCAR-5 > 100 µM | SF-295 > 100 µM | SK-MEL-28 > 100 µM | MCF7 > 100 µM | RPMI-8226 > 100 µM | RXF 393 > 100 µM | HOP-92 > 100 µM | PC-3 > 100 µM | HT-29 > 100 µM | MDA-N > 100 µM | T47D > 100 µM

CN(C)C(=S)SCC(N)=O
inactive: DU-145 > 100 µM | Hs-578T > 100 µM | Malme-3M > 100 µM | BT-549 > 100 µM | SF-539 > 100 µM | NCI/ADR-RES > 100 µM | MDA-MB-231 > 100 µM | OVCAR-5 > 100 µM | SF-295 > 100 µM | SK-MEL-28 > 100 µM | MCF7 > 100 µM | RPMI-8226 > 100 µM | RXF 393 > 100 µM | HOP-92 > 100 µM | PC-3 > 100 µM | HT-29 > 100 µM | MDA-N > 100 µM | T47D > 100 µM

Cc1ccc([N+](=O)[O-])cc1S(=O)(=O)Nc1ccc(C2=NN(c3ccc([N+](=O)[O-])cc3[N+](=O)[O-])C(c3ccccc3)C2)cc1 (stereo unspecified)
inactive: DU-145 17.9 µM | Hs-578T 21.9 µM | Malme-3M 17.9 µM | BT-549 17.2 µM | SF-539 20.3 µM | NCI/ADR-RES 18.4 µM | MDA-MB-231 14.9 µM | OVCAR-5 23.7 µM | SF-295 14.3 µM | SK-MEL-28 34.5 µM | MCF7 12.2 µM | RPMI-8226 9.27 µM | RXF 393 14.8 µM | HOP-92 14.8 µM | PC-3 14.3 µM | HT-29 16.1 µM | MDA-N 16 µM | T47D 12.1 µM
